Assay results as given in PubChem BioAssay (NCI).
Values joined by “and” are separate entries in the source; they are usually repeats but may differ in a detail not shown here. Equal values may be shown once.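 Cells were grown in 96-well plates and exposed to each compound for 48 hours at five concentrations; endpoints were interpolated linearly between bracketing concentrations, or set to the highest concentration if not reached. GI50 = concentration required for 50% inhibition of growth. The concentration for full growth arrest is given as TGI.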

Experiments:
Assay in all cases: growth of human tumour cells (NCI), 48 h
[1] = tested on: SF-295 CNS
[2] = tested on: HCC-2998 colon
[3] = tested on: HOP-62 NSCLC
[4] = tested on: NCI-H23 lung
[5] = tested on: NCI-H460 lung
[6] = tested on: EKVX NSCLC
[7] = tested on: NCI/ADR-RES ovarian

## COC(=O)[C@@H](C)C[C@H](Cc1ccccc1)NC(=O)c1csc([C@@H](C[C@H](C(C)C)N(C)C(=O)[C@@H](NC(=O)[C@H]2CCCCN2C)c2ccc(F)cc2)OC(C)=O)n1
[1]
  TGI: 25 µM and > 100 µM
[2]
  TGI: 25 µM and > 100 µM
[3]
  TGI: 25 µM and 40.4 µM
[4]
  TGI: 25 µM and > 100 µM
[5]
  TGI: 25 µM and > 100 µM
[6]
  TGI: 25 µM and > 100 µM
[7]
  GI50: 1.81 µM and 3.8 µM
  TGI: 25 µM and > 100 µM

## C/C(COc1ccc2oc(-c3ccccc3)cc(=O)c2c1)=N\O
[1]
  GI50: 12800 nM
  TGI: 33.6 µM
[2]
  GI50: 19500 nM
  TGI: > 100 µM
[3]
  GI50: 69.4 µM
  TGI: > 100 µM
[4]
  GI50: 88.5 µM
  TGI: > 100 µM
[5]
  GI50: 14300 nM
  TGI: > 100 µM
[6]
  GI50: 2.89 µM
  TGI: 26.6 µM
[7]
  GI50: 36 µM
  TGI: > 100 µM

## COc1ccc2c(c1)C(=O)/C(=C/c1ccc(O)cc1)O2
[1]
  GI50: 23600 nM
  TGI: > 66.9 µM
[2]
  GI50: 17300 nM
  TGI: 33.6 µM
[3]
  GI50: 55.2 µM
  TGI: > 100 µM
[4]
  GI50: 13.9 µM
  TGI: 34.4 µM
[5]
  GI50: 20300 nM
  TGI: 50.3 µM
[6]
  GI50: 18.6 µM
  TGI: > 53.5 µM
[7]
  GI50: 26.1 µM
  TGI: > 83.6 µM

## CC1(C)N=C(N)N=C(N)N1c1cccc(CCCCc2ccc(Cl)c(S(=O)(=O)F)c2)c1
[1]
  GI50: 2560 nM
  TGI: 13.4 µM
[2]
  GI50: 1920 nM
  TGI: 16 µM
[3]
  GI50: 6.34 µM
  TGI: 21.2 µM
[4]
  GI50: 2.83 µM
  TGI: 18.1 µM
[5]
  GI50: 938 nM
  TGI: 14.5 µM
[6]
  GI50: 11.4 µM
  TGI: 39.8 µM
[7]
  GI50: > 100 µM
  TGI: > 100 µM

## Cc1cc2[nH]c(=O)c3c4ncccc4cn3c2cc1C
[1]
  GI50: 1850 nM
  TGI: 3.84 µM
[2]
  GI50: 2590 nM
  TGI: 7.97 µM
[3]
  GI50: 3.81 µM
  TGI: 39.4 µM
[4]
  GI50: 8.86 µM
  TGI: > 100 µM
[5]
  GI50: 2170 nM
  TGI: 6.2 µM
[6]
  GI50: > 100 µM
  TGI: > 100 µM
[7]
  GI50: 2.93 µM
  TGI: > 100 µM

## OCC#Cc1ccccc1C#Cc1ccc(C#Cc2ccccc2C#CCO)cc1
[1]
  GI50: 22700 nM
  TGI: 62.6 µM
[3]
  GI50: 28.1 µM
  TGI: 68.5 µM
[4]
  GI50: 41.5 µM
  TGI: > 100 µM
[5]
  GI50: 28300 nM
  TGI: > 100 µM
[6]
  GI50: 34.6 µM
  TGI: 97.1 µM
[7]
  GI50: 55.2 µM
  TGI: > 100 µM

## O=c1cccccc1O
[1]
  TGI: > 100 µM
[2]
  TGI: > 100 µM
[4]
  TGI: > 100 µM
[5]
  TGI: > 100 µM
[6]
  TGI: > 100 µM
[7]
  TGI: > 100 µM

## C=C(C)[C@@H]1C/C=C(/COC(C)=O)CC[C@H]2O[C@@]2(C)CC/C=C(\C)CC1
[1]
  GI50: > 100000 nM
  TGI: > 100 µM
[2]
  GI50: > 100000 nM
  TGI: > 100 µM
[3]
  GI50: > 100 µM
  TGI: > 100 µM
[4]
  GI50: > 100 µM
  TGI: > 100 µM
[5]
  GI50: > 100000 nM
  TGI: > 100 µM
[7]
  GI50: > 100 µM
  TGI: > 100 µM

## COc1ccc(OC)c(-c2cc(-c3ccc(Cl)cc3)nn2-c2ccccc2)c1
[1]
  GI50: 33500 nM
  TGI: > 100 µM
[2]
  GI50: 26400 nM
  TGI: 52.8 µM
[4]
  GI50: 27.7 µM
  TGI: > 100 µM
[5]
  GI50: 33800 nM
  TGI: > 100 µM
[6]
  GI50: 82.8 µM
  TGI: > 100 µM
[7]
  GI50: 15.8 µM
  TGI: 60.9 µM

## COc1cc(/C=C2\C[C@H]3[C@@H]4CC=C5C[C@@H](O)CC[C@]5(C)[C@H]4CC[C@]3(C)[C@H]2O)ccc1OCCN1CCCCC1
[1]
  GI50: 906 nM
  TGI: 1.75 µM
[2]
  GI50: 850 nM
  TGI: 1.64 µM
[3]
  GI50: 0.799 µM
  TGI: 1.68 µM
[4]
  GI50: 1.21 µM
  TGI: 3.21 µM
[5]
  GI50: 1210 nM
  TGI: 3.62 µM
[6]
  GI50: 1.67 µM
  TGI: 9.62 µM
[7]
  GI50: 1.46 µM
  TGI: 4.66 µM

## CC(C)(C)c1cc[n+](C[n+]2ccc(C(C)(C)C)cc2)cc1
[1]
  TGI: > 100 µM
[2]
  TGI: > 100 µM
[3]
  TGI: > 100 µM
[4]
  TGI: > 100 µM
[5]
  TGI: > 100 µM
[6]
  TGI: > 100 µM
[7]
  TGI: > 100 µM

## CC1(C)CC[C@]2(C(=O)NCCNCCN)CC[C@]3(C)C(=CC[C@@H]4[C@@]5(C)CCC(=O)C(C)(C)[C@@H]5CC[C@]43C)[C@@H]2C1
[1]
  GI50: 1830 nM
  TGI: 3.39 µM
[2]
  GI50: 1730 nM
  TGI: 3.18 µM
[3]
  GI50: 2.05 µM
  TGI: 4.13 µM
[4]
  GI50: 1.9 µM
  TGI: 3.71 µM
[5]
  GI50: 1860 nM
  TGI: 3.51 µM
[6]
  GI50: 1.74 µM
  TGI: 3.67 µM
[7]
  GI50: 7.81 µM
  TGI: 22.7 µM

## CCCCNC(=O)Oc1ccc(/C(=C(\C)c2ccc(OC)cc2)c2ccc(OCCN3CCCCC3)cc2)cc1
[1]
  GI50: 2270 nM
  TGI: 5.47 µM
[2]
  GI50: 3310 nM
  TGI: 11.5 µM
[3]
  GI50: 3.15 µM
  TGI: 10.7 µM
[4]
  GI50: 4.06 µM
  TGI: 21.4 µM
[5]
  GI50: 1940 nM
  TGI: 3.86 µM
[6]
  GI50: 5.18 µM
  TGI: 22.9 µM
[7]
  GI50: 3.67 µM
  TGI: 19.3 µM

## Oc1ccc(Br)cc1C=NC1CCCCC1
[1]
  TGI: > 100 µM
[2]
  TGI: > 100 µM
[3]
  TGI: > 100 µM
[4]
  TGI: > 100 µM
[5]
  TGI: > 100 µM
[6]
  TGI: > 100 µM
[7]
  TGI: > 100 µM

## Cc1cccc2c(=O)c3c(sc12)c(NCCCN)nc1ccccc13
[1]
  GI50: 1750 nM
  TGI: 3.29 µM
[2]
  GI50: 1670 nM
  TGI: 3.39 µM
[3]
  GI50: 1.24 µM
  TGI: 2.79 µM
[4]
  GI50: 1.76 µM
  TGI: 3.5 µM
[5]
  GI50: 825 nM
  TGI: 2.25 µM
[6]
  GI50: 1.58 µM
  TGI: 3.14 µM

## CN1CCN(c2ccncc2S(=O)(=O)N2CCN(C)CC2)CC1
[1]
  TGI: > 100 µM
[3]
  TGI: > 100 µM
[4]
  TGI: > 100 µM
[5]
  TGI: > 100 µM
[6]
  TGI: > 100 µM
[7]
  TGI: > 100 µM

## CC(=O)CCc1ccc(Oc2c3ccccc3nc3occc23)cc1
[1]
  GI50: 15700 nM
  TGI: 40.9 µM
[3]
  GI50: 20.1 µM
  TGI: 35.4 µM
[4]
  GI50: 13 µM
  TGI: 39.3 µM
[5]
  GI50: 15600 nM
  TGI: 31.9 µM
[7]
  GI50: 15.4 µM
  TGI: 45.6 µM

## COc1cccc(C2SC(C)C(=O)N2NC(=O)C(O)c2ccccc2)c1 (centres undefined)
[1]
  GI50: > 100000 nM
  TGI: > 100 µM
[2]
  GI50: > 100000 nM
  TGI: > 100 µM
[3]
  GI50: > 100 µM
  TGI: > 100 µM
[4]
  GI50: > 100 µM
  TGI: > 100 µM
[5]
  GI50: > 100000 nM
  TGI: > 100 µM
[6]
  GI50: > 100 µM
  TGI: > 100 µM

## COc1ccc(NC(=O)c2ccc(C(F)(F)F)nc2Nc2ccc(Cl)cc2C)cc1Cl
[1]
  GI50: 2320 nM
  TGI: 12.7 µM
[3]
  GI50: 10.7 µM
  TGI: 23.9 µM
[4]
  GI50: 3.09 µM
  TGI: 15.1 µM
[5]
  GI50: 2900 nM
  TGI: 12.1 µM
[6]
  GI50: 3.47 µM
  TGI: 16.5 µM
[7]
  GI50: 3.17 µM
  TGI: 14.9 µM
